Test results: ChEMBL document CHEMBL3217653, “Design and synthesis of -amino alcohol based -lactamisatin chimeras and preliminary analysis of in vitro activity against the protozoal pathogen Trichomonas vaginalis” (Medchemcomm, 2013)
pIC50: −log10 of the molar value.

Assays:
Trichomonas vaginalis [1] = experiment: Antimicrobial activity against Trichomonas vaginalis G3 assessed as growth inhibition after 24 hrs by hemocytometry; format: functional; settings: G3, 24 h
Trichomonas vaginalis [2] = experiment: Antimicrobial activity against Trichomonas vaginalis G3 assessed as growth inhibition at 50 uM after 24 hrs by hemocytometry; format: functional; settings: G3, 24 h, read-out: GI
[3] = Cytotoxicity against human HeLa cells assessed as cell viability at 10 uM after 24 hrs by trypan blue assay relative to bleomycin; format: cell-based; settings: read-out: Activity

| Compound | pIC50 (Trichomonas vaginalis [1]) | inhibition of growth at 50 µM (Trichomonas vaginalis [2]) | viability at 24 h, 10 µM [3] |
| --- | --- | --- | --- |
| O=C1C(=O)N(CC(CO)N[C@@H]2C(=O)N(c3ccc(Cl)cc3)[C@@H]2/C=C/c2ccccc2)c2ccccc21 (some centres undefined) | 4.61 | 76.2% |  |
| Cc1ccc2c(c1)C(=O)C(=O)N2CC(CO)N[C@@H]1C(=O)N(c2ccc(Cl)cc2)[C@@H]1/C=C/c1ccccc1 (some centres undefined) | 4.84 | 97.6% |  |
| O=C1C(=O)N(CC(CO)N[C@@H]2C(=O)N(c3ccc(Cl)cc3)[C@@H]2/C=C/c2ccccc2)c2ccc(F)cc21 (some centres undefined) | 4.56 | 77.2% |  |
| Cc1ccc(N2C(=O)[C@@H](NC(CO)CN3C(=O)C(=O)c4ccccc43)[C@H]2/C=C/c2ccccc2)cc1 (relative stereo) | 4.72 | 95.3% |  |
| O=C1C(=O)N(CC(CO)N[C@@H]2C(=O)N(C3CCCCC3)[C@@H]2/C=C/c2ccccc2)c2ccccc21 (relative stereo) | 4.73 | 93.6% |  |
| Cc1ccc(N2C(=O)[C@@H](NC(CO)CN3C(=O)C(=O)c4cc(C)ccc43)[C@H]2/C=C/c2ccccc2)cc1 (relative stereo) |  | 56% |  |
| Cc1ccc2c(c1)C(=O)C(=O)N2CC(CO)N[C@@H]1C(=O)N(C2CCCCC2)[C@@H]1/C=C/c1ccccc1 (relative stereo) |  | 70.8% |  |
| Cc1ccc(N2C(=O)[C@@H](NC(CO)CN3C(=O)C(=O)c4cc(Cl)ccc43)[C@H]2/C=C/c2ccccc2)cc1 (relative stereo) |  | 59.8% |  |
| O=C1C(=O)N(CC(CO)N[C@@H]2C(=O)N(c3ccc(Cl)cc3)[C@@H]2/C=C/c2ccccc2)c2ccc(Cl)cc21 (relative stereo) | 5.01 | 97.1% | 30% |
| O=C1C(=O)N(CC(CO)N[C@@H]2C(=O)N(C3CCCCC3)[C@@H]2/C=C/c2ccccc2)c2ccc(Cl)cc21 (relative stereo) |  | 61.8% |  |
| Cc1ccc(N2C(=O)[C@@H](NC(CO)CN3C(=O)C(=O)c4cc(F)ccc43)[C@H]2/C=C/c2ccccc2)cc1 (relative stereo) |  | 71.9% |  |
| O=C1C(=O)N(CC(CO)N[C@@H]2C(=O)N(C3CCCCC3)[C@@H]2/C=C/c2ccccc2)c2ccc(F)cc21 (relative stereo) |  | 64.6% |  |
